What was measured:
[1] = target: Survival motor neuron protein (Homo sapiens) (UniProt Q16637); assay: Modulation of human SMN2 level in NSC34 cells assessed as fold change by ELISA; assay type: cell-based
[2] = target: T1, von Hippel-Lindau disease tumor suppressor (Homo sapiens, UniProt P40337); assay: Binding affinity to VHL E3 ligase (unknown origin) assessed as dissociation constant by isothermal titration calorimetry assay
[3] = target: T1, von Hippel-Lindau disease tumor suppressor; assay: Binding affinity to VHL E3 ligase (unknown origin) by fluorescence polarization (FP) assay

Chain of Survival motor neuron protein (Homo sapiens) (Q16637 whole entry): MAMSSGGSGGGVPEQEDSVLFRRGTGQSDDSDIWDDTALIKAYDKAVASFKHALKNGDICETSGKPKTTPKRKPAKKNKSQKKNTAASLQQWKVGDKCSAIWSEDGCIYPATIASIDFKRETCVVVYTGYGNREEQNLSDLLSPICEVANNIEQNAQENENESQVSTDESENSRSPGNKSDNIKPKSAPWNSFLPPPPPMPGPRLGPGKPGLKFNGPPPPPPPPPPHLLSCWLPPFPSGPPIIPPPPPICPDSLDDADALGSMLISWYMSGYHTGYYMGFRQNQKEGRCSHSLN
T1 sequence (P40337 whole entry): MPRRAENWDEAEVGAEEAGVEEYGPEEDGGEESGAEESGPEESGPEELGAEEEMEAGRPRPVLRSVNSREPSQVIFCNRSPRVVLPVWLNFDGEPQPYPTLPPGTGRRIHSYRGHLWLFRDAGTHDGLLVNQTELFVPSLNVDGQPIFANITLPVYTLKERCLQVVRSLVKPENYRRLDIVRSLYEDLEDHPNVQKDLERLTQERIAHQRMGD

Row | Compound | EC1.5 ([1]; NSC-34, filed as modulator) [nM] | fold change (FC) ([1]; NSC-34, filed as modulator) | other results
1 | C=C(CCNC(=O)CCCC)N1CCN(c2ccc3nc(-c4cc(F)c5nc(C)cn5c4)cc(=O)n3c2)CC1 | 43 | – | –
2 | CN(c1ccc(-c2ccc(-n3cccn3)cc2O)nn1)C1CC(C)(C)NC(C)(C)C1 | – | 3.1 | –
3 | Cc1cn2cc(-c3cc(=O)n4cc(N5CCN(C)CC5)ccc4n3)cc(F)c2n1 | 15 | – | –
4 | CN(c1ccc(-c2ccc(-c3cn[nH]c3)cc2O)nn1)C1CC(C)(C)NC(C)(C)C1 | – | 3.1 | –
5 | CCc1nc(C)cn2nc(-c3cc(=O)n4cc(N5CCN(CC)CC5)ccc4n3)cc12 | 23 | – | –
6 | CCN1CCN(c2ccc3nc(-c4cc5c(C)nc(C)cn5n4)cc(=O)n3c2)CC1 | 30 | – | –
7 | Oc1cc(-n2cccn2)ccc1-c1ccc(OC2CCNCC2(F)F)nn1 (centres undefined) | – | 1.2 | –
8 | Cc1cn2nc(-c3cc(=O)n4cc(N5CCNC6(CC6)C5)ccc4n3)cc(C)c2n1 | 4 | – | –
9 | Cc1cn2nc(-c3cc(=O)n4cc(N5CCN(C)CC5)ccc4n3)cc2c(C)n1 | 170 | – | –
10 | CCCCC(=O)NCCC(=O)N1CCN(c2ccc3nc(-c4cc(F)c5nc(C)cn5c4)cc(=O)n3c2)CC1 | – | – | EC1.5 ([1]; NSC-34): > 1000 nM
11 | CC1(C)CC(Oc2ccc(-c3ccc(-n4cccn4)cc3O)nn2)CC(C)(C)N1 | – | 3.3 | –
12 | COC(=O)c1ccc(CNC(=O)[C@@H]2C[C@@H](O)CN2C(=O)CC(C)(C)C)cc1 | – | – | Kd [2]: 45.5 µM; IC50 [3]: 53.2 µM
13 | CC1(C)CC(Oc2ccc(-c3ccc(-c4cn[nH]c4)cc3O)nn2)CC(C)(C)N1 | – | 3.6 | –
